{"source": "the kinase profiling compilation of Christmann-Franck et al. (2016)", "assay_in_all_cases": "radiometric filter-binding kinase assay, Kinase HotSpot", "details_in_all_cases": "compound 0.5 µM; ATP 10 µM", "key": {"PBK (human)": {"molecular_target": "PBK (human) (UniProt Q96KB5)", "sequence (Q96KB5 whole entry, looked up)": "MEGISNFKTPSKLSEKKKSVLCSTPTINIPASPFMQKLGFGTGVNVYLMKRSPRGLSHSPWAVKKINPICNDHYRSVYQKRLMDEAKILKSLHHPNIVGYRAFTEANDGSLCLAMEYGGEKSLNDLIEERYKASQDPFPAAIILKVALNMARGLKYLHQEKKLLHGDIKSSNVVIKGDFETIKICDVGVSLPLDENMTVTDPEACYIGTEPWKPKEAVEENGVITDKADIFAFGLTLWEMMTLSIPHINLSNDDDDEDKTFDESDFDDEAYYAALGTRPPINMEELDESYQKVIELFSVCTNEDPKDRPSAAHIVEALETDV"}, "MAP4K5 (human)": {"molecular_target": "MAP4K5 (human) (UniProt Q9Y4K4)", "sequence (Q9Y4K4 whole entry, looked up)": "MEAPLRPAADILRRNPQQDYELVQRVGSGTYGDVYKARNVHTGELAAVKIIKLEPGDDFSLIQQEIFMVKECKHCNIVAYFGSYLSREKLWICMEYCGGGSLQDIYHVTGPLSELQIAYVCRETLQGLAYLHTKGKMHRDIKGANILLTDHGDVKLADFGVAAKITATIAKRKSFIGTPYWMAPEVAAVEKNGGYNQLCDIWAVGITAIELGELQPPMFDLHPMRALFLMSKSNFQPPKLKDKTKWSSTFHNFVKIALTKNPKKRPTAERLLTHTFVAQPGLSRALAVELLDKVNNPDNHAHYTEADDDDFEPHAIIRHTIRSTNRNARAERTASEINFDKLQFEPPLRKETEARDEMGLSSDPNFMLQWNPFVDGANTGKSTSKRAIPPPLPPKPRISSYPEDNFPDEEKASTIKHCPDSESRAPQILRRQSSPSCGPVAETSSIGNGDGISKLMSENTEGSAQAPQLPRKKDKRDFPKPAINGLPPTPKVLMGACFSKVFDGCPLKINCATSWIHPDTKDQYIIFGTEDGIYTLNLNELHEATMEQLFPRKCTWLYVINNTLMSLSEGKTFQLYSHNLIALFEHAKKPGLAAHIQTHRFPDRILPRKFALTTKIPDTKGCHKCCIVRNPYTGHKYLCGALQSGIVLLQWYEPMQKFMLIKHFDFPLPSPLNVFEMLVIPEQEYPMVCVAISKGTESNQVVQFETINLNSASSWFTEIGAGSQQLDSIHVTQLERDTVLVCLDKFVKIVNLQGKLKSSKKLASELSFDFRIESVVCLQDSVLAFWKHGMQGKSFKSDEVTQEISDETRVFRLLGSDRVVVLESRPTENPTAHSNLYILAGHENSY"}, "LYN (human)": {"molecular_target": "LYN (human) (UniProt P07948)", "sequence (P07948 whole entry, looked up)": "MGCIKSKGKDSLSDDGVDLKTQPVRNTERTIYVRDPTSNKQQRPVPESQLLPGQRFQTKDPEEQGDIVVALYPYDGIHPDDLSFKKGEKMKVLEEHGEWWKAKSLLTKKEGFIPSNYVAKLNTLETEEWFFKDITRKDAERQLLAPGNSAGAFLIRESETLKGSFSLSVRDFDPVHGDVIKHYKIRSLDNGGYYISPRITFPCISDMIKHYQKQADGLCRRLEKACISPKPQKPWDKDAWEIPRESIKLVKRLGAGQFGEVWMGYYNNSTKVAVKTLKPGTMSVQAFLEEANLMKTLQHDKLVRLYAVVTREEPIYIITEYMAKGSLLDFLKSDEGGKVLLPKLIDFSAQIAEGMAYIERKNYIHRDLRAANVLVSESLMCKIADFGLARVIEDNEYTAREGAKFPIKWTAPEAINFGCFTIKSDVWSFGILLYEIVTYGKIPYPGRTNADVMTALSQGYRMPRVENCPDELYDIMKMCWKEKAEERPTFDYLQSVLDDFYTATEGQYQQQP"}, "CSK (human)": {"molecular_target": "CSK (human) (UniProt P41240)"}, "EPHA2 (human)": {"molecular_target": "EPHA2 (human) (UniProt P29317)", "sequence (P29317 whole entry, looked up)": "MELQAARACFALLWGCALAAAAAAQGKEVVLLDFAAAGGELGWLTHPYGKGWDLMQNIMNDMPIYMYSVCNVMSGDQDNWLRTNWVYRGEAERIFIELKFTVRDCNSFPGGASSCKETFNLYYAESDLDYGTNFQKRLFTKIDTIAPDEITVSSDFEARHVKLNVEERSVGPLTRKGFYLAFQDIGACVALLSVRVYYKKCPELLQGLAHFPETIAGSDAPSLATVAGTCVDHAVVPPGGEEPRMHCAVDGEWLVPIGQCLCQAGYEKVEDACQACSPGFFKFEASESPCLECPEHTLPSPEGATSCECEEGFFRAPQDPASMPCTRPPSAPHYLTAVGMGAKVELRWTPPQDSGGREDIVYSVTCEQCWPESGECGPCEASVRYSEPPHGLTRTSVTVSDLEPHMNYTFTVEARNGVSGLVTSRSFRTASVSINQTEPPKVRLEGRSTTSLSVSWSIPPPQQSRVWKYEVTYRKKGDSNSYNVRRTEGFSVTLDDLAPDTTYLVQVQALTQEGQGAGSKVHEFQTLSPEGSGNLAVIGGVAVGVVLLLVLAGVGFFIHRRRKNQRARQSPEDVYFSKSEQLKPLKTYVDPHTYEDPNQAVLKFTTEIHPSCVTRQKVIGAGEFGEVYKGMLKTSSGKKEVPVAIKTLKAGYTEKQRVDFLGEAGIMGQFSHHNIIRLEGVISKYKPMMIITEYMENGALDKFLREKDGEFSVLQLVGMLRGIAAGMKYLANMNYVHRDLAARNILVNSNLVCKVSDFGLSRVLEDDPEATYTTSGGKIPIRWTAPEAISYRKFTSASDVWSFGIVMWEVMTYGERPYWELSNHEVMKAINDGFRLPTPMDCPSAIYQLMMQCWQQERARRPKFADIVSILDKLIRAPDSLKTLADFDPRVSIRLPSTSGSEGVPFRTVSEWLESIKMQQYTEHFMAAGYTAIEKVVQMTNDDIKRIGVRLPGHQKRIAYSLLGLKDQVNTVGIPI"}, "STK3 (human)": {"molecular_target": "STK3 (human) (UniProt Q13188)"}, "PRKCB1 (human)": {"molecular_target": "PRKCB1 (human) (UniProt P05771)"}, "RPS6KA6 KD1 KD2 (human)": {"molecular_target": "RPS6KA6 KD1 KD2 (human) (UniProt Q9UK32)"}, "STK39 (human)": {"molecular_target": "STK39 (human) (UniProt Q9UEW8)"}, "CDK9 CCNT1 (human)": {"molecular_target": "CDK9 CCNT1 (human) (UniProt P50750+O60563)"}, "STK11 (human)": {"molecular_target": "STK11 (human) (UniProt Q15831)"}, "GSG2 (human)": {"molecular_target": "GSG2 (human) (UniProt Q8TF76)"}, "PHKG2 (human)": {"molecular_target": "PHKG2 (human) (UniProt P15735)", "sequence (P15735 whole entry, looked up)": "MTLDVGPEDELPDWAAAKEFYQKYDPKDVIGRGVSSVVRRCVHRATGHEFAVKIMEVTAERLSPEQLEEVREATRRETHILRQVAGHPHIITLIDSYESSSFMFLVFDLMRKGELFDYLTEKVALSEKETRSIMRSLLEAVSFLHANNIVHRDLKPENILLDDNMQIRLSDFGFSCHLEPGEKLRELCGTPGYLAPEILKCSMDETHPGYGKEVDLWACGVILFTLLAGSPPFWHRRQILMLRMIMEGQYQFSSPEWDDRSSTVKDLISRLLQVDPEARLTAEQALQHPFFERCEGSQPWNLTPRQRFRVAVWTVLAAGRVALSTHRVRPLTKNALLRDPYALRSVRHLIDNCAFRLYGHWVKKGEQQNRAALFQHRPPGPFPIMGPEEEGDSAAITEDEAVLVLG"}, "TXK (human)": {"molecular_target": "TXK (human) (UniProt P42681)"}, "MAP3K11 (human)": {"molecular_target": "MAP3K11 (human) (UniProt Q16584)"}, "WNK3 (human)": {"molecular_target": "WNK3 (human) (UniProt Q9BYP7)"}, "IGF1R (human)": {"molecular_target": "IGF1R (human) (UniProt P08069)"}, "TAOK1 (human)": {"molecular_target": "TAOK1 (human) (UniProt Q7L7X3)"}, "AKT2 (human)": {"molecular_target": "AKT2 (human) (UniProt P31751)"}, "LCK (human)": {"molecular_target": "LCK (human) (UniProt P06239)"}, "MAP3K10 (human)": {"molecular_target": "MAP3K10 (human) (UniProt Q02779)"}, "CDK2 CCNE1 (human)": {"molecular_target": "CDK2 CCNE1 (human) (UniProt P24941+P24864)", "sequence (P24864 whole entry, looked up, other chains not shown)": "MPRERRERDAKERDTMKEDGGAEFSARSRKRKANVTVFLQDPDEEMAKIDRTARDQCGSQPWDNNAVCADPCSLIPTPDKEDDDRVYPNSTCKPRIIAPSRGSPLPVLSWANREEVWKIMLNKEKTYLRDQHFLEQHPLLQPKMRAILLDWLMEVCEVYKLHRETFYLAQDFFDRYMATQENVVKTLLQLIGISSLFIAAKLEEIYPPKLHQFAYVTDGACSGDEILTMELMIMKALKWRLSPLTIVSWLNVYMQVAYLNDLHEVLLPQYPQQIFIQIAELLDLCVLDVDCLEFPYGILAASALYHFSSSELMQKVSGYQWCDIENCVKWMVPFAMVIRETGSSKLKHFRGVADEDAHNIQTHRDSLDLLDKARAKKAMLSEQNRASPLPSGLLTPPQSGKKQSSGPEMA"}, "DYRK4 (human)": {"molecular_target": "DYRK4 (human) (UniProt Q9NR20)"}, "LIMK1 (human)": {"molecular_target": "LIMK1 (human) (UniProt P53667)"}, "FYN (human)": {"molecular_target": "FYN (human) (UniProt P06241)"}, "RPS6KA3 KD1 KD2 (human)": {"molecular_target": "RPS6KA3 KD1 KD2 (human) (UniProt P51812)"}, "EPHA4 (human)": {"molecular_target": "EPHA4 (human) (UniProt P54764)"}, "ABL1 (human)": {"molecular_target": "ABL1 (human) (UniProt P00519)"}, "PRKCE (human)": {"molecular_target": "PRKCE (human) (UniProt Q02156)"}, "RAF1 (human)": {"molecular_target": "RAF1 (human) (UniProt P04049)"}, "MAPKAPK2 (human)": {"molecular_target": "MAPKAPK2 (human) (UniProt P49137)", "sequence (P49137 whole entry, looked up)": "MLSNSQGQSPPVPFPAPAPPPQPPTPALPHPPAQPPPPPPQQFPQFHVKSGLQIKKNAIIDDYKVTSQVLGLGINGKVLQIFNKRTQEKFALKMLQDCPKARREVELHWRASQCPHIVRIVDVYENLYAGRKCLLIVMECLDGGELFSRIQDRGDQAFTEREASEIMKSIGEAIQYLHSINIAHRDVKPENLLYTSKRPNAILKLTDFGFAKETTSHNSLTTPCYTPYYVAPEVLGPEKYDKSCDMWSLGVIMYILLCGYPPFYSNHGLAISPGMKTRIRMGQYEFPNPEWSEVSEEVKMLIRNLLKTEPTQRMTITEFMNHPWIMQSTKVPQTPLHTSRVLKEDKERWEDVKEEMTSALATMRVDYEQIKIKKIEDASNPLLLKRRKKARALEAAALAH"}, "PKN1 (human)": {"molecular_target": "PKN1 (human) (UniProt Q16512)"}, "LRRK2 (human)": {"molecular_target": "LRRK2 (human) (UniProt Q5S007)"}, "TGFBR1 (human)": {"molecular_target": "TGFBR1 (human) (UniProt P36897)"}, "STK10 (human)": {"molecular_target": "STK10 (human) (UniProt O94804)"}, "ZAP70 (human)": {"molecular_target": "ZAP70 (human) (UniProt P43403)"}, "JAK2 JH1 JH2 (human)": {"molecular_target": "JAK2 JH1 JH2 (human) (UniProt O60674)", "sequence (O60674 whole entry, looked up)": "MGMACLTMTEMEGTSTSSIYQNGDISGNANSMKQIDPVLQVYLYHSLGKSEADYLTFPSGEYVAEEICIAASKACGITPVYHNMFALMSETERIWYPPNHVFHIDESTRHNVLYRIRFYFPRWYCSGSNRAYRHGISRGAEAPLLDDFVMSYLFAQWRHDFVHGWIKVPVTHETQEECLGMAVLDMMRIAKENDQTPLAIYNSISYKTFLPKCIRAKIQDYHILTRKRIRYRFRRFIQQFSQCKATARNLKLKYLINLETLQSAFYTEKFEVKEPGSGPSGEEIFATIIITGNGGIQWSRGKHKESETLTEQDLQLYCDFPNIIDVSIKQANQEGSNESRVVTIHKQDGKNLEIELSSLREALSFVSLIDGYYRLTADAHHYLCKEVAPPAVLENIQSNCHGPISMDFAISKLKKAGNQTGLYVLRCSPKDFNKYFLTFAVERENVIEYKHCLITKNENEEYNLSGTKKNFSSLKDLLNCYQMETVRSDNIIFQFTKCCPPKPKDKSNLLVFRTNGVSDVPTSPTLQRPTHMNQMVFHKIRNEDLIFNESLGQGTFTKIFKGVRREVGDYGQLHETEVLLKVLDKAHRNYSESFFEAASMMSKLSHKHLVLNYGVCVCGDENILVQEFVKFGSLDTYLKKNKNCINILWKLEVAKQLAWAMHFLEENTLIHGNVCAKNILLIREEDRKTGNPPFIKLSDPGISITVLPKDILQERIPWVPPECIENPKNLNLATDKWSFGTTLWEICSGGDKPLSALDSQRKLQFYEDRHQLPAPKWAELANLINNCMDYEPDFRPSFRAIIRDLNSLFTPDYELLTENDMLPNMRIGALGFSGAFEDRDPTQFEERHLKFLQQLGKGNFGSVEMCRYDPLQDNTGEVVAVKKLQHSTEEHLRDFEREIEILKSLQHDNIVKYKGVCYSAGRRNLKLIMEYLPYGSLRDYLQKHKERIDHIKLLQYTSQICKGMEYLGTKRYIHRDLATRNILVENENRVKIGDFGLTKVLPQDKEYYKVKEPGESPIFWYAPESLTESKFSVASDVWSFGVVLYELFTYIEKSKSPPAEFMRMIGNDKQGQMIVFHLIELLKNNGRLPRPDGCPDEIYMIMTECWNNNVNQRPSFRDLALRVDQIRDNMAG"}, "ROCK2 (human)": {"molecular_target": "ROCK2 (human) (UniProt O75116)"}, "PAK2 (human)": {"molecular_target": "PAK2 (human) (UniProt Q13177)"}, "CDK1 CCNB1 (human)": {"molecular_target": "CDK1 CCNB1 (human) (UniProt P06493+P14635)"}, "PDPK1 (human)": {"molecular_target": "PDPK1 (human) (UniProt O15530)"}, "DSTYK (human)": {"molecular_target": "DSTYK (human) (UniProt Q6XUX3)"}}, "note": "Where “and” joins values, the source holds several entries; their conditions need not be identical. Identical values can stand only once."}
{"smiles": "Cc1nc(-c2ccccc2)c(-c2ccncc2)o1", "values": [{"measurement": "residual activity", "setting": "PBK (human)", "result": 110, "unit": "%"}, {"measurement": "residual activity", "setting": "MAP4K5 (human)", "result": 96.2, "unit": "%"}, {"measurement": "residual activity", "setting": "LYN (human)", "result": "104% and 97.4%"}, {"measurement": "residual activity", "setting": "CSK (human)", "result": 107, "unit": "%"}, {"measurement": "residual activity", "setting": "EPHA2 (human)", "result": 104, "unit": "%"}, {"measurement": "residual activity", "setting": "STK3 (human)", "result": 104, "unit": "%"}, {"measurement": "residual activity", "setting": "PRKCB1 (human)", "result": 95.2, "unit": "%"}, {"measurement": "residual activity", "setting": "RPS6KA6 KD1 KD2 (human)", "result": 115, "unit": "%"}, {"measurement": "residual activity", "setting": "STK39 (human)", "result": 97.1, "unit": "%"}, {"measurement": "residual activity", "setting": "CDK9 CCNT1 (human)", "result": 84.6, "unit": "%"}, {"measurement": "residual activity", "setting": "STK11 (human)", "result": 98.4, "unit": "%"}, {"measurement": "residual activity", "setting": "GSG2 (human)", "result": 87.6, "unit": "%"}, {"measurement": "residual activity", "setting": "PHKG2 (human)", "result": 97.6, "unit": "%"}, {"measurement": "residual activity", "setting": "TXK (human)", "result": 99.4, "unit": "%"}, {"measurement": "residual activity", "setting": "MAP3K11 (human)", "result": 98.7, "unit": "%"}, {"measurement": "residual activity", "setting": "WNK3 (human)", "result": 106, "unit": "%"}, {"measurement": "residual activity", "setting": "IGF1R (human)", "result": 99.9, "unit": "%"}, {"measurement": "residual activity", "setting": "TAOK1 (human)", "result": 98.5, "unit": "%"}, {"measurement": "residual activity", "setting": "AKT2 (human)", "result": 96.7, "unit": "%"}, {"measurement": "residual activity", "setting": "LCK (human)", "result": 99.7, "unit": "%"}, {"measurement": "residual activity", "setting": "MAP3K10 (human)", "result": 101, "unit": "%"}, {"measurement": "residual activity", "setting": "CDK2 CCNE1 (human)", "result": 93.4, "unit": "%"}, {"measurement": "residual activity", "setting": "DYRK4 (human)", "result": 91.2, "unit": "%"}, {"measurement": "residual activity", "setting": "LIMK1 (human)", "result": 95.5, "unit": "%"}, {"measurement": "residual activity", "setting": "FYN (human)", "result": 99.8, "unit": "%"}, {"measurement": "residual activity", "setting": "RPS6KA3 KD1 KD2 (human)", "result": 103, "unit": "%"}, {"measurement": "residual activity", "setting": "EPHA4 (human)", "result": 112, "unit": "%"}, {"measurement": "residual activity", "setting": "ABL1 (human)", "result": 100, "unit": "%"}, {"measurement": "residual activity", "setting": "PRKCE (human)", "result": 103, "unit": "%"}, {"measurement": "residual activity", "setting": "RAF1 (human)", "result": 92.6, "unit": "%"}, {"measurement": "residual activity", "setting": "MAPKAPK2 (human)", "result": 101, "unit": "%"}, {"measurement": "residual activity", "setting": "PKN1 (human)", "result": 101, "unit": "%"}, {"measurement": "residual activity", "setting": "LRRK2 (human)", "result": 96.8, "unit": "%"}, {"measurement": "residual activity", "setting": "TGFBR1 (human)", "result": 102, "unit": "%"}, {"measurement": "residual activity", "setting": "STK10 (human)", "result": 96.9, "unit": "%"}, {"measurement": "residual activity", "setting": "ZAP70 (human)", "result": 98.8, "unit": "%"}, {"measurement": "residual activity", "setting": "JAK2 JH1 JH2 (human)", "result": 98.4, "unit": "%"}, {"measurement": "residual activity", "setting": "ROCK2 (human)", "result": 97.6, "unit": "%"}, {"measurement": "residual activity", "setting": "PAK2 (human)", "result": 82.3, "unit": "%"}, {"measurement": "residual activity", "setting": "CDK1 CCNB1 (human)", "result": 90.8, "unit": "%"}, {"measurement": "residual activity", "setting": "PDPK1 (human)", "result": 96.9, "unit": "%"}, {"measurement": "residual activity", "setting": "DSTYK (human)", "result": 91, "unit": "%"}]}
